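Where inhibition never reached the appropriate level, the endpoint shown equals the highest concentration tested. Otherwise, values were interpolated linearly from a five-concentration, 48-hour dose response in 96-well plates. Abbreviation: GI50, concentration required for 50% inhibition of growth.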 The source made the active and inactive calls. Cut-off read from the data, not from the text of the source: active = GI50 up to about 1.1 µM and inactive = higher.
Assays:
Assay in all cases: growth of human tumour cells (NCI), 48 h
BT-549 = system: BT-549
TK-10 = system: TK-10
OVCAR-3 = system: OVCAR-3
HCT-15 = system: HCT-15
RPMI-8226 = system: RPMI-8226
SR = system: SR
EKVX = system: EKVX
M14 = system: M14
NCI/ADR-RES = system: NCI/ADR-RES
786-0 = system: 786-0
HOP-92 = system: HOP-92
Hs-578T = system: Hs-578T
MDA-N = system: MDA-N
MOLT-4 = system: MOLT-4
U-251 = system: U-251
COLO 205 = system: COLO 205
SK-OV-3 = system: SK-OV-3
LOX IMVI = system: LOX IMVI
SF-268 = system: SF-268
HCT-116 = system: HCT-116
SW-620 = system: SW-620
MDA-MB-231 = system: MDA-MB-231
IGROV-1 = system: IGROV-1
PC-3 = system: PC-3
CCRF-CEM = system: CCRF-CEM
NCI-H460 = system: NCI-H460
HT-29 = system: HT-29
SK-MEL-28 = system: SK-MEL-28
A498 = system: A498
HCC 2998 = system: HCC 2998
DU-145 = system: DU-145
RXF 393 = system: RXF 393
T47D = system: T47D
CAKI-1 = system: CAKI-1
SK-MEL-2 = system: SK-MEL-2
UACC-257 = system: UACC-257
SF-539 = system: SF-539
Malme-3M = system: Malme-3M
A549 = system: A549
SNB-19 = system: SNB-19
K562 = system: K562
OVCAR-8 = system: OVCAR-8
KM12 = system: KM12
SF-295 = system: SF-295
OVCAR-4 = system: OVCAR-4
HL-60 = system: HL-60
HOP-62 = system: HOP-62
SK-MEL-5 = system: SK-MEL-5
UACC-62 = system: UACC-62
NCI-H23 = system: NCI-H23
ACHN = system: ACHN
OVCAR-5 = system: OVCAR-5
MCF7 = system: MCF7
MDA-MB-435 = system: MDA-MB-435
NCI-H226 = system: NCI-H226
SN12C = system: SN12C
SNB-75 = system: SNB-75
NCI-H522 = system: NCI-H522
UO-31 = system: UO-31

Measured: GI50

O=C(NCCCc1cn[nH]c(=O)n1)c1cccc2nc3ccccc3nc12
> 100 µM: HCT-15
inactive: BT-549 > 100 µM | TK-10 36.5 µM | OVCAR-3 > 100 µM | RPMI-8226 > 100 µM | SR 40.6 µM | EKVX > 100 µM | M14 > 100 µM | NCI/ADR-RES > 100 µM | 786-0 40.7 µM | HOP-92 75 µM | Hs-578T > 100 µM | MDA-N > 100 µM | MOLT-4 33.3 µM | U-251 36.5 µM | COLO 205 > 100 µM | SK-OV-3 > 100 µM | LOX IMVI > 100 µM | SF-268 91.8 µM | HCT-116 42 µM | SW-620 > 100 µM | MDA-MB-231 27.8 µM | IGROV-1 > 100 µM | PC-3 > 100 µM | CCRF-CEM > 100 µM | NCI-H460 > 100 µM | HT-29 > 100 µM | SK-MEL-28 > 100 µM | A498 > 100 µM | HCC 2998 > 100 µM | DU-145 63 µM | RXF 393 41.5 µM | T47D > 100 µM | CAKI-1 > 100 µM | SK-MEL-2 > 100 µM | UACC-257 > 100 µM | SF-539 > 100 µM | Malme-3M 36.5 µM | A549 > 100 µM | SNB-19 > 100 µM | K562 > 100 µM | OVCAR-8 61.9 µM | KM12 > 100 µM | SF-295 31.7 µM | OVCAR-4 > 100 µM | HL-60 > 100 µM | HOP-62 47.8 µM | SK-MEL-5 > 100 µM | UACC-62 > 100 µM | NCI-H23 > 100 µM | ACHN 31.6 µM | OVCAR-5 > 100 µM | MCF7 > 100 µM | MDA-MB-435 > 100 µM | NCI-H226 > 100 µM | SN12C 86.3 µM

O=C(O)/C=C/C(=O)Nc1nc[nH]n1
> 100 µM: HCT-15
active: HL-60 0.034 µM
inactive: BT-549 > 100 µM | TK-10 > 100 µM | OVCAR-3 > 100 µM | RPMI-8226 > 100 µM | EKVX > 100 µM | M14 > 100 µM | NCI/ADR-RES > 100 µM | 786-0 > 100 µM | HOP-92 > 100 µM | Hs-578T > 100 µM | MDA-N > 100 µM | MOLT-4 62.5 µM | U-251 > 100 µM | COLO 205 > 100 µM | SNB-75 > 100 µM | SK-OV-3 > 100 µM | LOX IMVI > 100 µM | SF-268 > 100 µM | HCT-116 > 100 µM | SW-620 > 100 µM | MDA-MB-231 > 100 µM | IGROV-1 > 100 µM | NCI-H522 > 100 µM | PC-3 > 100 µM | NCI-H460 > 100 µM | HT-29 > 100 µM | SK-MEL-28 > 100 µM | A498 > 100 µM | HCC 2998 > 100 µM | DU-145 > 100 µM | RXF 393 > 100 µM | T47D > 100 µM | CAKI-1 > 100 µM | SK-MEL-2 > 100 µM | UACC-257 > 100 µM | SF-539 > 100 µM | A549 > 100 µM | SNB-19 > 100 µM | OVCAR-8 > 100 µM | KM12 > 100 µM | SF-295 > 100 µM | OVCAR-4 > 100 µM | HOP-62 > 100 µM | SK-MEL-5 > 100 µM | UO-31 > 100 µM | UACC-62 > 100 µM | NCI-H23 > 100 µM | ACHN > 100 µM | OVCAR-5 > 100 µM | MCF7 > 100 µM | MDA-MB-435 > 100 µM | NCI-H226 > 100 µM | SN12C > 100 µM

COc1ccc(-n2c(=O)n(C)c(=O)n2-c2c(C)c(C)c(C)c(C)c2C)cc1
active: CCRF-CEM 0.148 µM
inactive: BT-549 > 100 µM | TK-10 > 100 µM | OVCAR-3 > 100 µM | RPMI-8226 > 100 µM | EKVX > 100 µM | M14 > 100 µM | NCI/ADR-RES > 100 µM | 786-0 > 100 µM | HOP-92 > 100 µM | Hs-578T > 100 µM | MDA-N > 100 µM | MOLT-4 > 100 µM | U-251 > 100 µM | COLO 205 > 100 µM | SNB-75 > 100 µM | SK-OV-3 > 100 µM | LOX IMVI > 100 µM | SF-268 > 100 µM | HCT-116 > 100 µM | SW-620 > 100 µM | MDA-MB-231 > 100 µM | IGROV-1 > 100 µM | NCI-H522 > 100 µM | PC-3 > 100 µM | NCI-H460 > 100 µM | HT-29 > 100 µM | SK-MEL-28 > 100 µM | A498 > 100 µM | HCC 2998 > 100 µM | DU-145 > 100 µM | RXF 393 > 100 µM | T47D > 100 µM | CAKI-1 > 100 µM | SK-MEL-2 > 100 µM | UACC-257 > 100 µM | SF-539 > 100 µM | Malme-3M > 100 µM | A549 > 100 µM | SNB-19 > 100 µM | K562 > 100 µM | OVCAR-8 > 100 µM | KM12 > 100 µM | SF-295 > 100 µM | OVCAR-4 > 100 µM | HOP-62 > 100 µM | SK-MEL-5 > 100 µM | UO-31 > 100 µM | UACC-62 > 100 µM | NCI-H23 > 100 µM | ACHN > 100 µM | OVCAR-5 > 100 µM | MCF7 > 100 µM | MDA-MB-435 > 100 µM | NCI-H226 > 100 µM | SN12C > 100 µM
> 100 µM: HCT-15

Reference: ChEMBL document CHEMBL1201862, “PubChem BioAssay data set” (2004)
